The values that follow come from ChEMBL document CHEMBL4130413, “1-Aryl-1H- and 2-aryl-2H-1,2,3-triazole derivatives blockade P2X7 receptor in vitro and inflammatory response in vivo” (Eur J Med Chem, 2017).

Calls of active or inactive are those of the source. The calls are words filed in the database; no cut-off is given here.

Data set [1] addresses T1, UDP-glucuronosyltransferase 1A10 (Homo sapiens, UniProt Q9HAW8).
T1 sequence (Q9HAW8 whole entry): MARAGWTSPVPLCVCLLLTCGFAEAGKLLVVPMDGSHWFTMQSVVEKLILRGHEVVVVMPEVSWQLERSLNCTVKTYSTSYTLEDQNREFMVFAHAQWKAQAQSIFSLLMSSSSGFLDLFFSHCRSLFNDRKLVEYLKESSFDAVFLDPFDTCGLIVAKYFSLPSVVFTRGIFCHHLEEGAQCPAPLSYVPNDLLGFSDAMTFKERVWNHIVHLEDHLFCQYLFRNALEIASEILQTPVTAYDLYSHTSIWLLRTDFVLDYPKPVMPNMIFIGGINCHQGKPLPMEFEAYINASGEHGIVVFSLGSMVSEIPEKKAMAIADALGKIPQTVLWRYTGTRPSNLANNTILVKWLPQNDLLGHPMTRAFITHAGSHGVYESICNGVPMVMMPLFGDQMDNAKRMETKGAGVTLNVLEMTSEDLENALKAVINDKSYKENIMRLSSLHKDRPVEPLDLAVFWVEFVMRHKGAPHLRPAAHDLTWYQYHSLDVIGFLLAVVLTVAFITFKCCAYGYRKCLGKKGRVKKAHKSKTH
The experiment in a line: Drug metabolism assessed as UGT1A10 (unknown origin)-mediated metabolite formation. Type of data set: ADME.

For data set [2], the target named is T2, UDP-glucuronosyltransferase 2B15 (Homo sapiens, UniProt P54855).
T2 sequence (P54855 whole entry): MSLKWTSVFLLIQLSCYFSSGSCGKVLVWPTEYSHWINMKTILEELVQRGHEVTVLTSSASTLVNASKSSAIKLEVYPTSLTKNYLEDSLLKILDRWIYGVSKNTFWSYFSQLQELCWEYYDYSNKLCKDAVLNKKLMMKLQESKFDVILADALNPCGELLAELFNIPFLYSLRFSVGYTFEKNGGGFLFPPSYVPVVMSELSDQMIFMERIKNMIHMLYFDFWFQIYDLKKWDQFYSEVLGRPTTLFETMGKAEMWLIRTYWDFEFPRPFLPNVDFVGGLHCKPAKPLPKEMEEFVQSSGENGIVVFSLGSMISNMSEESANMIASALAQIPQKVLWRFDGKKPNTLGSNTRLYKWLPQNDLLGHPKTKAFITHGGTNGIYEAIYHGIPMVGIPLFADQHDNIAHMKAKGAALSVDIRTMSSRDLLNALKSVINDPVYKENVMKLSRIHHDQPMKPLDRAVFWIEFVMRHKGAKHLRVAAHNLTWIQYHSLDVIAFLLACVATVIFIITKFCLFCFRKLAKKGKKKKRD
The experiment in a line: Drug metabolism assessed as UGT2B15 (unknown origin)-mediated metabolite formation. Type of data set: ADME.

A further data set deals with Cytochrome P450 2D6 (Homo sapiens, UniProt P10635).
Data set [3] addresses T3, UDP-glucuronosyltransferase 1A4 (Homo sapiens, UniProt P22310).
T3 sequence (P22310 whole entry): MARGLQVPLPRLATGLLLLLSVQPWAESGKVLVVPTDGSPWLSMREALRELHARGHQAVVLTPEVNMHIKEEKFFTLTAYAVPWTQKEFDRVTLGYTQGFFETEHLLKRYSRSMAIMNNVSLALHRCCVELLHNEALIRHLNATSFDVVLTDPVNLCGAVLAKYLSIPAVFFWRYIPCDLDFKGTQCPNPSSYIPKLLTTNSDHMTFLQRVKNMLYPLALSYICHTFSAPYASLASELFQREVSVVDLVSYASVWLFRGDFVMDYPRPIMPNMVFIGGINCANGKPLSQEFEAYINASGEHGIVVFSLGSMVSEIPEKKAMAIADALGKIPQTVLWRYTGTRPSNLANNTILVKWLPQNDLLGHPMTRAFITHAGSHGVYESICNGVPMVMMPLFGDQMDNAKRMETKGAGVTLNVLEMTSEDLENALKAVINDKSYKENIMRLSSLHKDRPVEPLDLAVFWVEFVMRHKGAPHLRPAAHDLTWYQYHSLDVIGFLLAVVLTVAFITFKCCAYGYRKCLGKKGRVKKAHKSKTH
Kind of data set: Drug metabolism assessed as UGT1A4 (unknown origin)-mediated metabolite formation. Format: ADME.

For another data set, the target named is Cytochrome P450 2C19 (Homo sapiens, UniProt P33261).
Data set [4] deals with T4, UDP-glucuronosyltransferase 1A8 (Homo sapiens, UniProt Q9HAW9).
T4 sequence (Q9HAW9 whole entry): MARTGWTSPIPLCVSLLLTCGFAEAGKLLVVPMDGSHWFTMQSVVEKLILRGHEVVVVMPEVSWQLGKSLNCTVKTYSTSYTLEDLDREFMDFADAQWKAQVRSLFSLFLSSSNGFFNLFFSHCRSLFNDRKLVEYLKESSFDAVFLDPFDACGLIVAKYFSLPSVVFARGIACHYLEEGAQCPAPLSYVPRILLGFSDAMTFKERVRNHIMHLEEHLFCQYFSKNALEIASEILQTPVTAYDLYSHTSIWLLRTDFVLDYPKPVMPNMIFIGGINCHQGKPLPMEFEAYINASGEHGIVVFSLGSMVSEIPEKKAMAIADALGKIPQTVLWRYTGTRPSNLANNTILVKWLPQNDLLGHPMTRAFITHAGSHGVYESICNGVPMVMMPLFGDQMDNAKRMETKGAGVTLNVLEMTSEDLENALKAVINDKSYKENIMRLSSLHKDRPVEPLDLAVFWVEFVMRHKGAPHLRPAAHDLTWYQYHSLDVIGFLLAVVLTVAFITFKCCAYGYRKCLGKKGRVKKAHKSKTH
The experiment in a line: Drug metabolism assessed as UGT1A8 (unknown origin)-mediated metabolite formation. Format: ADME.

Data set [5] has as its target T5, UDP-glucuronosyltransferase 2B7 (Homo sapiens, UniProt P16662).
T5 sequence (P16662 whole entry): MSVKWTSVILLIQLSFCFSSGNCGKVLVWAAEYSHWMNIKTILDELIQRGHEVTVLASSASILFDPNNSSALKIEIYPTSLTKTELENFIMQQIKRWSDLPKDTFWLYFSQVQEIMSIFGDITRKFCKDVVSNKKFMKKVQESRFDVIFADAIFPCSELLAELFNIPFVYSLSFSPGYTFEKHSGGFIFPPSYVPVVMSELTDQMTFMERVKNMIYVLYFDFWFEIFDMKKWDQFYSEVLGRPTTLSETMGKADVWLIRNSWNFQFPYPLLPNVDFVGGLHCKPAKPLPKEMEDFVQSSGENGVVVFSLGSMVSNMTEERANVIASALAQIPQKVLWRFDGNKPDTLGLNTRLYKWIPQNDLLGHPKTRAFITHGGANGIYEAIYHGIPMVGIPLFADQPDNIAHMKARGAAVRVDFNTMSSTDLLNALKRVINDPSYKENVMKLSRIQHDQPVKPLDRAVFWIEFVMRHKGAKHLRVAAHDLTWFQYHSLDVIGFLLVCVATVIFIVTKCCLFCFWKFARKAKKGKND
The experiment in a line: Drug metabolism assessed as UGT2B7 (unknown origin)-mediated metabolite formation. Format: ADME.

A further data set has as its system Mus musculus. The experiment in a line: Anti-inflammatory activity in Swiss mouse assessed as inhibition of LPS-induced nitric oxide production in pleural washes at 1 to 100 ng/kg, ip pretreated for 1 hr followed by LPS stimulation and measured after 24 hrs by Lowry/Griess analysis. Type of data set: functional, organism-based.

Cytochrome P450 2D6, sequence (P10635 whole entry): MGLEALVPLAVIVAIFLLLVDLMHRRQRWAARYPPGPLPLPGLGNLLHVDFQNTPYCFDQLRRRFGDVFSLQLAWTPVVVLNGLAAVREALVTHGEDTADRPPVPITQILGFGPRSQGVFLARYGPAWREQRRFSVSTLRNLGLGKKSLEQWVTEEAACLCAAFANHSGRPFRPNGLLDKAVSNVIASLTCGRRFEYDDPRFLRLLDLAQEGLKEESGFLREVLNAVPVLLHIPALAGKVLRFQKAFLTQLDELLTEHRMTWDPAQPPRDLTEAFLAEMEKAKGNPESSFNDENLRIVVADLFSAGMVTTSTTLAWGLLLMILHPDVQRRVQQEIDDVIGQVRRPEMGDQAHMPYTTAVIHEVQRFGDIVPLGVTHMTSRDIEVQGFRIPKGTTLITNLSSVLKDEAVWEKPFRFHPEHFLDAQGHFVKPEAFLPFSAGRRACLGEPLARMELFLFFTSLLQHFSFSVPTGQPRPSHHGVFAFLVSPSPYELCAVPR
Cytochrome P450 2C19, sequence (P33261 whole entry): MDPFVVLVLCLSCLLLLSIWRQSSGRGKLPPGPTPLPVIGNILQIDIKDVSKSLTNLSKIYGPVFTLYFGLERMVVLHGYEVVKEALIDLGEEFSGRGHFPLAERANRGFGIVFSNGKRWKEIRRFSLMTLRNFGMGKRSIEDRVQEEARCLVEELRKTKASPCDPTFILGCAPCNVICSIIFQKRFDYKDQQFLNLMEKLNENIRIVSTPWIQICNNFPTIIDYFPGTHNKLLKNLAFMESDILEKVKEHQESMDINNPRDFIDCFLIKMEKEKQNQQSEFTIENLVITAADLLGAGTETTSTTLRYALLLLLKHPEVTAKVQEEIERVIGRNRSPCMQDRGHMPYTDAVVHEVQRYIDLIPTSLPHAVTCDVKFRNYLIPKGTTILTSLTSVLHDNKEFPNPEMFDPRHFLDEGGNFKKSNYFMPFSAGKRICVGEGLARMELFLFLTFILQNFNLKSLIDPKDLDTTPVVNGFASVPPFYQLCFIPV
Description for Cytochrome P450 2C19: Drug metabolism assessed as CYP2C19 (unknown origin)-mediated metabolite formation
Description for Cytochrome P450 2D6: Drug metabolism assessed as CYP2D6 (unknown origin)-mediated metabolite formation

With `CC(C)Cc1ccc(C(C)C(=O)O)cc1` (configuration not stated) [IBUPROFEN], the Drug metabolism result (in data set [1]; in data set [2]; on Cytochrome P450 2D6; in data set [3]; at Cytochrome P450 2C19; in data set [4]) was “Metabolite_Notdetected” in each case. In addition, in data set [5], the Drug metabolism result is given as “Metabolite_Detected”.

As for `CCOCc1cn(-c2ccc(Cl)cc2)nn1`, the result in the data set with Mus musculus was Active. The Drug metabolism result was “Metabolite_Notdetected” in data set [1]; “Metabolite_Notdetected” in data set [2]; “Metabolite_Notdetected” on Cytochrome P450 2D6; “Metabolite_Detected” in data set [3]; “Metabolite_Notdetected” on Cytochrome P450 2C19; “Metabolite_Notdetected” in data set [4]. The Drug metabolism result in data set [5] was “Metabolite_Notdetected”.

Take `O=C(O)Cc1ccccc1Nc1c(Cl)cccc1Cl` [DICLOFENAC]: the Drug metabolism entry (in data set [1]; in data set [2]; at Cytochrome P450 2D6; in data set [3]; on Cytochrome P450 2C19; in data set [4]) was “Metabolite_Notdetected” each time. Moreover, the Drug metabolism entry in data set [5] was “Metabolite_Detected”.

On to `COc1ccc2cc([C@H](C)C(=O)O)ccc2c1` [NAPROXEN], for which the Drug metabolism entry in data set [1] is recorded as “Metabolite_Notdetected”; in data set [2] it was “Metabolite_Notdetected”; in data set [3], “Metabolite_Notdetected”; in data set [4], “Metabolite_Notdetected”; in data set [5] it was “Metabolite_Detected”.
